Test results published in US9284333B2, “Fused pyrroledicarboxamides and their use as pharmaceuticals” (SANOFI, priority 2012, dated 2016).

Molecular target: Human TASK-1 channels (Homo sapiens (Human), UniProt O14649)
Experiment: Determination of the activity on the TASK-1 channel in Xenopus oocytes (two-microelectrode voltage clamp)
Format: cell-based
Conditions: for IC50: human TASK-1 expressed in Xenopus oocytes, room temperature, read-out: IC50 value for TASK-1 inhibition
Procedure, shortened: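 Xenopus oocytes were injected with human TASK-1 cRNA and recorded two days later by two-microelectrode voltage clamp, holding at −90 mV with 500 ms steps to 40 mV. Superfusion used ND96, pH 7.4, at room temperature, with rising compound concentrations; percentage inhibition of control current was fitted to a dose-response curve for IC50.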

Sequence of Human TASK-1 channels (O14649 whole entry): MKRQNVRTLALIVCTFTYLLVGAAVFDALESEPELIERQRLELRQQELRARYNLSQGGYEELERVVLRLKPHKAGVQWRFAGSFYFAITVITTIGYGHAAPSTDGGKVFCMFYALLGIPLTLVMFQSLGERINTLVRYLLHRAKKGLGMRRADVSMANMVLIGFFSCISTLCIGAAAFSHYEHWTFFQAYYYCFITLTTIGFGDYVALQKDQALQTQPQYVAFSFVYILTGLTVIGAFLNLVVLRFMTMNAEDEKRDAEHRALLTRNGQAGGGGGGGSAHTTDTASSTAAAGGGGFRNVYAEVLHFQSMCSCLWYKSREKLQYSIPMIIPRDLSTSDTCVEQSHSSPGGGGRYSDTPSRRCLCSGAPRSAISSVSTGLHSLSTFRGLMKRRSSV

| IC50 [nM] | inhibition at 5 µM (compound concentration 5 μM) [%] | Compound |
| --- | --- | --- |
| 320 | – | CC[C@@H](NC(=O)c1cc(C(=O)NCc2ccccc2C#N)n2c1COCC2)c1ccccc1 [16gy, 3,4-Dihydro-1H-pyrrolo[2,1-c][1,4]oxazine-6,8-dicarboxylic acid 6-(2-cyano-benzylamide) 8-[((R)-1-phenyl-propyl)-amide]] |
| 430 | – | CC[C@@H](NC(=O)c1cc(C(=O)NCc2ccccc2S(C)(=O)=O)n2c1COCC2)c1ccccc1 [16gx, 3,4-Dihydro-1H-pyrrolo[2,1-c][1,4]oxazine-6,8-dicarboxylic acid 6-(2-methanesulfonyl-benzylamide) 8-[((R)-1-phenyl-propyl)-amide]] |
| 310 | – | CC[C@@H](NC(=O)c1cc(C(=O)NC(C)c2ncccn2)n2c1COCC2)c1ccccc1Cl (stereo partly drawn) [16nr, 3,4-Dihydro-1H-pyrrolo[2,1-c][1,4]oxazine-6,8-dicarboxylic acid 8-{[(R)-1-(2-chloro-phenyl)-propyl]-amide} 6-[(1-pyrimidin-2-yl-ethyl)-amide]] |
| 300 | – | CC[C@@H](NC(=O)c1cc(C(=O)N[C@H](C)c2ccc(F)cc2)n2c1COCC2)c1ncc(C(F)(F)F)cn1 [16ed, 3,4-Dihydro-1H-pyrrolo[2,1-c][1,4]oxazine-6,8-dicarboxylic acid 6-{[(R)-1-(4-fluoro-phenyl)-ethyl]-amide} 8-{[(R)-1-(5-trifluoromethyl-pyrimidin-2-yl)-propyl]-amide}] |
| 37 | – | CC[C@@H](NC(=O)c1cc(C(=O)N2CCC[C@@H]2C)n2c1SCC2)c1ccccc1 [16ks, 5-((S)-2-Methyl-pyrrolidine-1-carbonyl)-2,3-dihydro-pyrrolo[2,1-b]thiazole-7-carboxylic acid ((R)-1-phenyl-propyl)-amide] |
| 74 | – | CC[C@@H](NC(=O)c1cc(C(=O)N2CCCC2)n2c1COCC2)c1ccccc1 [16cx, 6-(Pyrrolidine-1-carbonyl)-3,4-dihydro-1H-pyrrolo[2,1-c][1,4]oxazine-8-carboxylic acid ((R)-1-phenyl-propyl)-amide] |
| 620 | – | CC[C@@H](NC(=O)c1cc(C(=O)NCc2cnco2)c2n1CCCC2)c1ccccc1 [16mc, 5,67,8-Tetrahydro-indolizine-1,3-dicarboxylic acid 1-[(oxazol-5-ylmethyl)-amide] 3-[((R)-1-phenyl-propyl)-amide]] |
| – | 71 | CC(C)[C@@H](NC(=O)c1cc(C(=O)N2CCC[C@@H]2C)c2n1CCOC2)c1ccc(C(F)(F)F)nc1 [16po, 8-((S)-2-Methyl-pyrrolidine-1-carbonyl)-3,4-dihydro-1H-pyrrolo[2,1-c][1,4]oxazine-6-carboxylic acid [(R)-2-methyl-1-(6-trifluoromethyl-pyridin-3-yl)-propyl]-amide] |
| 42 | – | CC[C@@H](NC(=O)c1cc(C(=O)N[C@@H](C)C2CC2)n2c1CCCC2)c1ccccc1 [16mz, 5,6,7,8-Tetrahydro-indolizine-1,3-dicarboxylic acid 3-[((S)-1-cyclopropyl-ethyl)-amide] 1-[((R)-1-phenyl-propyl)-amide]] |
| 1500 | – | CC[C@@H](NC(=O)c1cc(C(=O)NC(C2CC2)C2CC2)n2c1COCC2)c1ccc(C(F)(F)F)nc1 [16pa, 3,4-Dihydro-1H-pyrrolo[2,1-c][1,4]oxazine-6,8-dicarboxylic acid 6-dicyclopropylmethyl-amide 8-{[(R)-1-(6-trifluoromethyl-pyridin-3-yl)-propyl]-amide}] |
| 140 | – | CC[C@@H](NC(=O)c1cc(C(=O)N2CCC[C@@H]2C)n2c1COCC2)c1cnc(Cl)c(Cl)c1 [16co, 6-((S)-2-Methyl-pyrrolidine-1-carbonyl)-3,4-dihydro-1H-pyrrolo[2,1-c][1,4]oxazine-8-carboxylic acid [(R)-1-(5,6-dichloro-pyridin-3-yl)-propyl]-amide] |
| 1800 | – | CC[C@H](NC(=O)c1cc(C(=O)N[C@@H](CC)c2ncccn2)c2n1CCOC2)c1ccccc1 [16kc] |
| 210 | – | CC[C@@H](NC(=O)c1cc(C(=O)N2CCC[C@@H]2C#N)n2c1COCC2)c1ccccc1 [16fm, 6-((R)-2-Cyano-pyrrolidine-1-carbonyl)-3,4-dihydro-1H-pyrrolo[2,1-c][1,4]oxazine-8-carboxylic acid ((R)-1-phenyl-propyl)-amide] |
